# Data from PMC9315372, “Impact of Sub-MIC Eugenol on Klebsiella pneumoniae Biofilm Formation via Upregulation of rcsB” (Frontiers in Veterinary Science, 2022).
# pKd: −log10 of the molar value.
# Molecular target: T1, RcsB (Klebsiella pneumoniae, UniProt W1DMM9)
# T1 construct: expressed and purified earlier in the laboratory
# Test: microscale thermophoresis (Monolith NT.[…])
# Format: binding
# T1 sequence (W1DMM9 entry or part of it): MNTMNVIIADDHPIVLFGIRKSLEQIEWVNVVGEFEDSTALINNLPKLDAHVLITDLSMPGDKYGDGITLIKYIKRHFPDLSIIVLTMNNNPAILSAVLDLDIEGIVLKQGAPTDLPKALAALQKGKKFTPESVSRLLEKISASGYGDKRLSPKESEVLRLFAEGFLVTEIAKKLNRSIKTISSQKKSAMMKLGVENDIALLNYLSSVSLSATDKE
smiles,measurement,value
C=CCc1ccc(O)c(OC)c1 [eugenol],pKd,4.27
